Entries after “also recorded” stand apart in the source; their conditions may differ.
Key:
[1] = tested on: CXCL1-induced hPMN chemotaxis; test: CXCL1-induced hPMN chemotaxis, 48-well microchemotaxis chamber; assay type: cell-based, human; conditions: hPMN pre-incubated 15 min at 37°C, migration 45 min
Source text: chemotherapy-induced neuropathic pain”
Benedetti, Antonio Giordano, Annamaria Cimini, Marcello Allegretti.
Chemokines were from PeproTech (London, UK). Chemicals and cell culture reagents were from Sigma Aldrich (Saint Louis, MI, USA).
Cell isolation and culture
L’Aquila, Italy. Ethical clearance was obtained to perform these experiments. Human PMNs were […]
blood cells as previously described 1.
Cell viability, as measured by Trypan Blue dye exclusion, was greater than 98%. […]
microchemotaxis chamber, as previously described 2. Briefly, 25 µl of control medium (PBS for […]
the lower compartment of the chemotaxis chamber. […]
vehicle were seeded in the upper compartment. The two compartments were separated by 5 µm pre-size polycarbonate filter (polyvinylpyrrolidone-free for PMN chemotaxis). The chamber was […]
Physicochemical characterization […]
and a turbidity-sensing device. […]
water/HBSS to a final concentration of 10 μM. Cell membrane homogenates (48 μg protein) were […]

[2] = Metabolic stability, human; assay type: in vitro ADME; conditions: Test conc: 2.5 µM
Source text: (§1) Table 1 Physicochemical and in Vitro ADME Properties of DF2726A. | column: DF2726A

CYP 1A2 [3] = target: CYP 1A2 (Homo sapiens, UniProt P05177); assay type: in vitro ADME
Chain of CYP 1A2 (Homo sapiens, UniProt P05177) (P05177 whole entry): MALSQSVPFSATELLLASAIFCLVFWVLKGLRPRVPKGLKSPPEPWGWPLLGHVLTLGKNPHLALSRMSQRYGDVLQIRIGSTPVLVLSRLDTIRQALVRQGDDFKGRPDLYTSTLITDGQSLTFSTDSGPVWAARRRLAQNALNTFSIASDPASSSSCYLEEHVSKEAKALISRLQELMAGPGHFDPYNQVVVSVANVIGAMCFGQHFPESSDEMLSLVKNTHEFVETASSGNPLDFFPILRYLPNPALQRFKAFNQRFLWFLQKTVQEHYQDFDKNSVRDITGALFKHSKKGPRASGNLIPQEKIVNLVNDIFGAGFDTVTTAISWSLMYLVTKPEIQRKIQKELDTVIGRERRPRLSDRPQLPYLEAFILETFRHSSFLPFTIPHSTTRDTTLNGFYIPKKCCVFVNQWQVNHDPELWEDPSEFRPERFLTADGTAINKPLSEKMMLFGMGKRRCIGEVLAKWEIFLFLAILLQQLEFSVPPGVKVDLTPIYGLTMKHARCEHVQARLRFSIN
Source text: as §1

CYP 1A2 [4] = assay type: in vitro ADME
Source text: as §1

CYP 2D6 = CYP 2D6 (Homo sapiens, UniProt P10635); test: CYP inhibition 2D6; assay type: in vitro ADME
Chain of CYP 2D6 (P10635 whole entry): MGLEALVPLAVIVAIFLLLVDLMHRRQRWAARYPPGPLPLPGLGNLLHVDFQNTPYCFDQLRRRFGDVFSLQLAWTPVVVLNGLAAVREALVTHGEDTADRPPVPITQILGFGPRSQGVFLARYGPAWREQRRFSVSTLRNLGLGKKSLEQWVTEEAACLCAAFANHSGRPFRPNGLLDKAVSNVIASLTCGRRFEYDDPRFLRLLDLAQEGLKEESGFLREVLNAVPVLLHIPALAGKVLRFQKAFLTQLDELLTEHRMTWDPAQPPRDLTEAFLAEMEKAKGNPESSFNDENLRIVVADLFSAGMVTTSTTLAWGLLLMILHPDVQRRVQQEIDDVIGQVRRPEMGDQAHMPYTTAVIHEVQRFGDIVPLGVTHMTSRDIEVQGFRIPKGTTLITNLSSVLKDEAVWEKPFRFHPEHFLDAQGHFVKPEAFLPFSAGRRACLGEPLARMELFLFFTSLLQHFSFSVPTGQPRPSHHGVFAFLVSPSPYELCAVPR
Source text: as §1

human COX2 = target: T1, human COX2 (Homo sapiens, UniProt P35354); test: COX2 assay, PGE2 formation from arachidonic acid, recombinant enzyme; assay type: biochemical
T1 construct: host or cells: Sf-9
T1 sequence (P35354 18-604): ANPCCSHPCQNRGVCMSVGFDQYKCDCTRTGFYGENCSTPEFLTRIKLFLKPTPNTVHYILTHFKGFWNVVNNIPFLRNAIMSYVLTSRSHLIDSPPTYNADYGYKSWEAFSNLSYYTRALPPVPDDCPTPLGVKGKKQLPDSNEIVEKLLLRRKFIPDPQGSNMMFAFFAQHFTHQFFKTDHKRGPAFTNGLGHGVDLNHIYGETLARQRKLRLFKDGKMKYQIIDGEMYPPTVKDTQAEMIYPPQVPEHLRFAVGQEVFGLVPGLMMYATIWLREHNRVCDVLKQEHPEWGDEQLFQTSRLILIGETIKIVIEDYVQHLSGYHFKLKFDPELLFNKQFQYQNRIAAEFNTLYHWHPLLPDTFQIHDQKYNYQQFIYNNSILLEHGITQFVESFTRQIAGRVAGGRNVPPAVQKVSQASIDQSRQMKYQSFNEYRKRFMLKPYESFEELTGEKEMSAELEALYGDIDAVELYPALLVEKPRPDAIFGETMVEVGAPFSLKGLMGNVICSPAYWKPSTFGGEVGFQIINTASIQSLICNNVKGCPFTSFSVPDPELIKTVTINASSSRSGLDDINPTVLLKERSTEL
Description: Protein binding in human, dog and rat plasma […]
in DMSO at a final concentration of 2 mM. […]
plasma to obtain a final concentration of 10 µM. Human, dog and rat plasma (200 µL) in triplicate […]
vials for LC-MS/MS analysis. […]
mM Tris-HCl (pH 8.0), 1.98 mM phenol and 1.02 µM hematine. Thereafter, the reaction was initiated by adding 4 µM (COX1) or 2 µM (COX2) of arachidonic acid and the mixture was incubated for 5 min at RT. For basal control measurements, arachidonic acid was omitted from the reaction mixture. Following incubation, t he reaction was stopped by the addition of 1 M HCl then 1 M Tris/HCl (pH 8.0) followed by cooling to 4°C.
The fluorescence acceptor (d2 labeled PGE2) and the fluorescence donor (anti -PGE2 antibody labeled with europium Cryptate) were then added. After 120 min, the fluorescence transfer corresponding to the amount of residual PGE2 was measured at λex=337 nm, λem=620 nm and λem=665 nm using a microplate reader (Envision, Perkin Elmer). The enzyme activity was determined by dividing the signal measured at 665 nm by that measured at 620 nm (ratio). The results were expressed as a percent age inhibition of the control enzyme activity. The standard inhibitory reference compound was Diclofenac, which was tested in each experiment at several concentrations to obtain an inhibition curve from which its IC50 value was calculated. […]

[5] = tested on: paclitaxel-induced mechanical and cold allodynia; test: Paclitaxel-induced mechanical and cold allodynia; assay type: in vivo; conditions: 30 mg/kg os for 14 days, rats
Description: 5/8 inch needles; Chemil s.r.l., Padova, Italy) at 0.08, 0.5, 1, 3, 6, 12, 24, 36 and 48 h for i.v. dosing and at 0.25, 0.5, 1, 3, 6, 12, 24, 36 and 48 h for oral dosing. After each blood withdrawal, the catheters were washed with 0.15-0.2 mL of sterile physiological saline and filled with 0.03 mL of heparin saline solution (0.25 U.I/mL). The heparinized blood was immediately centrifuged (8000 RPM for 5 min at approximately 4°C) and the resultant plasma transferred into vials and stored at - 20°C until analysis. DF2726A concentrations were quantified by HLPC-MS/MS using a chromatographic method with a lower limit of quantitation of 1 ng·mL -1. Non-compartmental analysis (Gibaldi and Perrier, 1982) were used to calculate the pharmacokinetic parameters using a MKModel by Nick Holford software Version 4, (Biosoft, Ferguson, MO 63 135, USA).
DF2726A was administered at a dose of 30 mg/2ml/kg/os for 14 consecutive days starting 3 days before paclitaxel administration and continuing for 11 days after the first administration of […]
Induction of neuropathy by paclitaxel
Rats received 4 once daily intraperitoneal (i.p.) injections of paclitaxel (Tocris, Italy) (2 mg/kg/day i.p.; cumulative dose of 8 mg/kg i.p.) or vehicle (saline, 1ml/kg/day i.p.), administered on alternate days (days 0, 2, 4, and 6) as descr ibed 4. […]
Pac+Saline group. […] Data are expressed as […]

## CC(C)(C(=O)O)c1ccc(Nc2nc(C(F)(F)F)cs2)cc1 [DF2726A]
[1]
  IC50: 0.008 µM
[2]
  Metabolic stability human: 7.0 µL/min/10^6 cells
CYP 1A2 [3]
  IC50: > 30 µM
CYP 1A2 [4]
  IC50: > 100 µM
CYP 2D6
  IC50: > 30 µM
Human COX2
  COX 2 Inhibition (50 µM): did not inhibit; also recorded: No Inhibition observed
[5]
  Effect on paclitaxel-induced mechanical and cold allodynia: prevented
